Test results taken from US20250011288A1 (BRISTOL-MYERS SQUIBB COMPANY, priority 2021, published 2025).

Molecular target: T1, human RXFP1 (Homo sapiens, UniProt Q9HBX9)
T1 construct: expressed in transfected cells
T1 sequence (Q9HBX9 1-757): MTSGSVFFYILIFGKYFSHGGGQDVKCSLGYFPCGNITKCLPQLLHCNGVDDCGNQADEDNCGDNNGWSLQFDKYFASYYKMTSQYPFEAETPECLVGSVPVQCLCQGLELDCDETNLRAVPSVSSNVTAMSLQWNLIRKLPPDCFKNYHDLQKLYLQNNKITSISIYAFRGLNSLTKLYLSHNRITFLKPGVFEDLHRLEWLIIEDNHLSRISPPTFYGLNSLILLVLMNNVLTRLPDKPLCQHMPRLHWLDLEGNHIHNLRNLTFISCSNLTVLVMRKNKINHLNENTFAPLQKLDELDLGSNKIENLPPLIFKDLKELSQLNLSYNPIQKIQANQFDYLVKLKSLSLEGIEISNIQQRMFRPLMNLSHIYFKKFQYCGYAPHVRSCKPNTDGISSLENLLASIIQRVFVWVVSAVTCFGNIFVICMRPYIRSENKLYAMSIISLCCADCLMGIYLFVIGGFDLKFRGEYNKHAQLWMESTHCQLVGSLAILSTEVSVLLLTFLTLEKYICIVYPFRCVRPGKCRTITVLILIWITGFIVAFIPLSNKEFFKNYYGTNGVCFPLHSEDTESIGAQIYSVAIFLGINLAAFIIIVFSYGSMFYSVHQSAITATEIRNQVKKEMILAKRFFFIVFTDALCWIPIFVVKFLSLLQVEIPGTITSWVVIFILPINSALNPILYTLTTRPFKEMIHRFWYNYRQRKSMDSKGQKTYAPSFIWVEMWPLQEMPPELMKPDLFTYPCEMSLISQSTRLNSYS
Experiment: human RXFP1 (hRXFP1) HEK293 cAMP assay (HTRF)
Type: cell-based
Conditions: HEK293 cells stably expressing human RXFP1, 30 min at room temperature
Method in brief: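 HEK293 cells stably expressing human RXFP1 (1500 cells/well) in HBSS/20 mM HEPES/0.05% BSA/0.5 mM IBMX, treated with compound (0.010 nM–50 µM final, 2% DMSO) for 30 min at room temperature. Intracellular cAMP read by HTRF; potency from 4-parameter logistic fit of cAMP versus concentration.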

Compound	EC50
N- ((1R,2R,3S,4R,Z)- 3-((4-fluoro-3- (trifluoromethyl) phenyl)carbamoyl)- 7-3- hydroxy- propylidene) bicyclo[2.2.1] heptan-2-yl)-5-(5- (hydroxymethyl)- 3a,5,6,6a- tetrahydro-4H- cyclopenta[d] isoxazol-3-yl)-2- methoxy- nicotinamide [Example 114]	1.2 nM
O=C(N[C@@H]1C2CCC(/C2=C/C(F)(F)F)[C@@H]1C(=O)Nc1ccc(F)c(C(F)(F)F)c1)c1cc(Br)cnc1OCCO (stereo partly drawn) [Example 41, 5-bromo-N-[(2R,3S,7Z)-3-{[4-fluoro-3-(trifluoromethyl)phenyl]carbamoyl}-7-(2,2,2-trifluoroethylidene)bicyclo[2.2.1]heptan-2-yl]-2-(2-hydroxyethoxy) pyridine-3-carboxamide]	770 nM
O=C(O)c1ccc(F)c(C23COC(C(=O)N[C@H]4[C@@H](C(=O)Nc5ccc(F)c(C(F)(F)F)c5)[C@H]5CC[C@@H]4/C5=C\C(F)(F)F)(C2)C3)c1 [Example 81, 4-fluoro-3-(1-(((1R,2R,3S,4R,Z)-3-((4-fluoro-3-(trifluoromethyl)phenyl)carbamoyl)-7-(2,2,2-trifluoroethylidene)bicyclo[2.2.1]heptan-2-yl)carbamoyl)-2-oxabicyclo[2.1.1]hexan-4-yl)benzoic acid]	2300 nM
COc1ncc(C(=O)NCC2(S(C)(=O)=O)CC2)cc1C(=O)N[C@H]1[C@@H](C(=O)N[C@H](C)C2(C)CC2)[C@H]2CC[C@@H]1/C2=C\C1CC1 [Example 149, N3-[(1R,2R,3S,4R, 7Z)-7-(cyclopropyl-methylidene)-3-{[(1R)-1-(1-methylcyclopropyl)ethyl]carbamoyl}bicyclo[2.2.1]heptan-2-yl]-N5-[(1-methanesulfonylcyclopropyl)methyl]-2-methoxypyridine-3,5-dicarboxamide]	2.7 nM
COc1ncc(C2=NOC3CC(C(C)O)CC23)cc1C(=O)N[C@H]1[C@@H](C(=O)N[C@H](C)C2(C)CC2)[C@H]2CC[C@@H]1/C2=C\C1CC1 (stereo partly drawn) [Example 159, N-[(1R,2R,3S,4R, 7Z)-7-(cyclopropyl-methylidene)-3-{[(1R)-1-(1-methylcyclopropyl)ethyl]carbamoyl}bicyclo[2.2.1]heptan-2-yl]-5-[5-(1-hydroxyethyl)-3aH,4H,5H,6H, 6aH-cyclopenta[d][1,2]oxazol-3-yl]-2-methoxypyridine-3-carboxamide]	6.1 nM
COc1ncc(C2=NOC3CC(CO)CC23)cc1C(=O)N[C@H]1[C@@H](C(=O)Nc2ccc(F)c(C(F)(F)F)c2)[C@H]2CC[C@@H]1/C2=C\c1cscn1 (stereo partly drawn) [Example 96, N-((1R,2R,3S,4R,Z)-3-((4-fluoro-3-(trifluoromethyl)phenyl)carbamoyl)-7-(thiazol-4-ylmethylene)bicyclo[2.2.1]heptan-2-yl)-5-(5-(hydroxymethyl)-3a,5,6,6a-tetrahydro-4H-cyclopenta[d]isoxazol-3-yl)-2-methoxy-nicotinamide]	1.4 nM
COCCN1CCc2cc(C(=O)N[C@@H]3C4CCC(/C4=C/C4CC4)[C@@H]3C(=O)Nc3ccc(F)c(C(F)(F)F)c3)c(OC)cc2C1 (some centres unmarked) [Example 91]	4700 nM
COc1cn(CCCO)nc1C(=O)N[C@H]1[C@@H](C(=O)Nc2ccc(F)c(C(F)(F)F)c2)[C@H]2CC[C@@H]1/C2=C\C1CC1 [Example 80, N-[(1R,2R,3S, 4R,7Z)-7-(cyclopropyl-methylidene)-3-{[4-fluoro-3-(trifluoromethyl)phenyl]carbamoyl}bicyclo[2.2.1]heptan-2-yl]-1-(3-hydroxypropyl)-4-methoxy-1H-pyrazole-3-carboxamide]	260 nM
COc1ncc(C2=NOC3CC(CO)CC23)cc1C(=O)N[C@H]1[C@@H](C(=O)Nc2ccc(F)c(C(F)(F)F)c2)[C@H]2CC[C@@H]1/C2=C\C1CCCC1 (stereo partly drawn) [Example 123, N-((1R,2R,3S,4R,Z)-7-(cyclopentyl-methylene)-3-((4-fluoro-3-(trifluoromethyl)phenyl)carbamoyl)bicyclo[2.2.1]heptan-2-yl)-5-(5-(hydroxymethyl)-3a,5,6,6a-tetrahydro-4H-cyclopenta[d]isoxazol-3-yl)-2-methoxynicotinamide]	3.1 nM
COc1ncc(C2=NOC3CC(C(O)C(F)(F)F)CC23)cc1C(=O)N[C@H]1[C@@H](C(=O)Nc2ccc(F)c(C(F)(F)F)c2)[C@H]2CC[C@@H]1/C2=C\C(C)C (stereo partly drawn) [Example 127, N-((1R,2R,3S,4R,Z)-3-((4-fluoro-3-(trifluoromethyl)phenyl)carbamoyl)-7-(2-methylpropylidene)bicyclo[2.2.1]heptan-2-yl)-2-methoxy-5-(5-(2,2,2-trifluoro-1-hydroxyethyl)-3a,5,6,6a-tetrahydro-4H-cyclopenta [d]isoxazol-3-yl)nicotinamide]	4.3 nM

System: not given
Experiment: not given
Conditions: intravenous (IV) formulation; cited from earlier work

Compound	first-phase pharmacokinetic half-life
Serelaxin	5.4 min
